# Experimental data: the supplement of paper PMC10627819
# Key:
# Experiment in all cases: Bliss interaction score (quartile over a dose matrix) (fitness difference); higher = more antagonism (negative = synergy)
# S. aureus Newman = tested on: S. aureus Newman
# Procedure, shortened: (§1)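 Growth in each well was taken as OD595 at entry into stationary phase. Dividing by the plate's robust no-drug mean and capping at 1 gave fitness, and single-drug fitness was inferred from the combination data. The Bliss score, observed minus product-expected fitness, is summarised by quartiles over technical, biological and donor/recipient replicates.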
# S. pneumoniae D39V = tested on: S. pneumoniae D39V
# Procedure, shortened: as §1
# S. aureus DSM 20231 = tested on: S. aureus DSM 20231
# Procedure, shortened: as §1
# B. subtilis 168 = tested on: B. subtilis 168
# Procedure, shortened: as §1
# 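Further: first quartile when negative (synergy) and third quartile when positive (antagonism).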
SMILES,Bliss interaction score (S. aureus Newman),Bliss interaction score (S. pneumoniae D39V),Bliss interaction score (S. aureus DSM 20231),Bliss interaction score (B. subtilis 168)
CC[C@H]1OC(=O)[C@H](C)[C@@H](O[C@H]2C[C@@](C)(OC)[C@@H](O)[C@H](C)O2)[C@H](C)[C@@H](O[C@@H]2O[C@H](C)C[C@H](N(C)C)[C@H]2O)[C@](C)(O)C[C@@H](C)C(=O)[C@H](C)[C@@H](O)[C@]1(C)O [Erythromycin] + C[C@@H](O)[C@H]1C(=O)N2C(C(=O)O)=C(SCCNC=N)C[C@H]12 [Imipenem],0.0221,-0.0344,0.0185,0.078
CC[C@H]1OC(=O)[C@H](C)[C@@H](O[C@H]2C[C@@](C)(OC)[C@@H](O)[C@H](C)O2)[C@H](C)[C@@H](O[C@@H]2O[C@H](C)C[C@H](N(C)C)[C@H]2O)[C@](C)(O)C[C@@H](C)C(=O)[C@H](C)[C@@H](O)[C@]1(C)O [Erythromycin] + C[C@H]1COc2c(N3CCN(C)CC3)c(F)cc3c(=O)c(C(=O)O)cn1c23 [Levofloxacin],0.0478,0.0979,0.0327,0.041
CC[C@H]1OC(=O)[C@H](C)[C@@H](O[C@H]2C[C@@](C)(OC)[C@@H](O)[C@H](C)O2)[C@H](C)[C@@H](O[C@@H]2O[C@H](C)C[C@H](N(C)C)[C@H]2O)[C@](C)(O)C[C@@H](C)C(=O)[C@H](C)[C@@H](O)[C@]1(C)O [Erythromycin] + C[n+]1ccc(-c2cc[n+](C)cc2)cc1 [Paraquat],0.0479,0.0496,0.0299,-0.0399
CC[C@H]1OC(=O)[C@H](C)[C@@H](O[C@H]2C[C@@](C)(OC)[C@@H](O)[C@H](C)O2)[C@H](C)[C@@H](O[C@@H]2O[C@H](C)C[C@H](N(C)C)[C@H]2O)[C@](C)(O)C[C@@H](C)C(=O)[C@H](C)[C@@H](O)[C@]1(C)O [Erythromycin] + Cc1cc(NS(=O)(=O)c2ccc(N)cc2)no1 [Sulfamethoxazol],-0.0442,-0.0479,-0.0354,-0.0511
CC[C@H]1OC(=O)[C@H](C)[C@@H](O[C@H]2C[C@@](C)(OC)[C@@H](O)[C@H](C)O2)[C@H](C)[C@@H](O[C@@H]2O[C@H](C)C[C@H](N(C)C)[C@H]2O)[C@](C)(O)C[C@@H](C)C(=O)[C@H](C)[C@@H](O)[C@]1(C)O [Erythromycin] + Cc1ncc([N+](=O)[O-])n1CCO [Metronidazole],-0.0396,0.0719,-0.0288,-0.0335
CC[C@H]1OC(=O)[C@H](C)[C@@H](O[C@H]2C[C@@](C)(OC)[C@@H](O)[C@H](C)O2)[C@H](C)[C@@H](O[C@@H]2O[C@H](C)C[C@H](N(C)C)[C@H]2O)[C@](C)(O)C[C@@H](C)C(=O)[C@H](C)[C@@H](O)[C@]1(C)O [Erythromycin] + Cc1onc(-c2ccccc2)c1C(=O)N[C@@H]1C(=O)N2[C@@H]1SC(C)(C)[C@@H]2C(=O)O [Oxacillin],0.0255,0.0509,0.0345,-0.0427
CC[C@H]1OC(=O)[C@H](C)[C@@H](O[C@H]2C[C@@](C)(OC)[C@@H](O)[C@H](C)O2)[C@H](C)[C@@H](O[C@@H]2O[C@H](C)C[C@H](N(C)C)[C@H]2O)[C@](C)(O)C[C@@H](C)C(=O)[C@H](C)[C@@H](O)[C@]1(C)O [Erythromycin] + Clc1ccc(COC(Cn2ccnc2)c2ccc(Cl)cc2Cl)c(Cl)c1 [Miconazole],0.0457,0.114,0.0299,-0.0519
CC[C@H]1OC(=O)[C@H](C)[C@@H](O[C@H]2C[C@@](C)(OC)[C@@H](O)[C@H](C)O2)[C@H](C)[C@@H](O[C@@H]2O[C@H](C)C[C@H](N(C)C)[C@H]2O)[C@](C)(O)C[C@@H](C)C(=O)[C@H](C)[C@@H](O)[C@]1(C)O [Erythromycin] + Cn1nnc(-c2ccc(-c3ccc(N4C[C@H](CO)OC4=O)cc3F)cn2)n1 [Tedizolid],-0.07,0.0787,-0.0541,-0.0574
CC[C@H]1OC(=O)[C@H](C)[C@@H](O[C@H]2C[C@@](C)(OC)[C@@H](O)[C@H](C)O2)[C@H](C)[C@@H](O[C@@H]2O[C@H](C)C[C@H](N(C)C)[C@H]2O)[C@](C)(O)C[C@@H](C)C(=O)[C@H](C)[C@@H](O)[C@]1(C)O [Erythromycin] + O=C1CN(/N=C/c2ccc([N+](=O)[O-])o2)C(=O)N1 [Nitrofurantoin],-0.0513,-0.197,-0.0518,-0.0393
CC[C@H]1OC(=O)[C@H](C)[C@@H](O[C@H]2C[C@@](C)(OC)[C@@H](O)[C@H](C)O2)[C@H](C)[C@@H](O[C@@H]2O[C@H](C)C[C@H](N(C)C)[C@H]2O)[C@](C)(O)C[C@@H](C)C(=O)[C@H](C)[C@@H](O)[C@]1(C)O [Erythromycin] + Oc1cc(Cl)ccc1Oc1ccc(Cl)cc1Cl [Triclosan],0.0312,-0.0874,-0.0265,-0.0438
CC(=O)NC[C@H]1CN(c2ccc(N3CCOCC3)c(F)c2)C(=O)O1 [Linezolid] + CC1(C)S[C@@H]2[C@H](NC(=O)Cc3ccccc3)C(=O)N2[C@H]1C(=O)O [PenicillinG],-0.0481,0.0505,0.0632,-0.0653
CC(=O)NC[C@H]1CN(c2ccc(N3CCOCC3)c(F)c2)C(=O)O1 [Linezolid] + CC[C@H]1OC(=O)[C@H](C)C(=O)[C@H](C)[C@@H](O[C@@H]2O[C@H](C)C[C@H](N(C)C)[C@H]2O)[C@](C)(OC)C[C@@H](C)C(=O)[C@H](C)[C@H]2N(CCCCn3cnc(-c4cccnc4)c3)C(=O)O[C@]12C [Telithromycin],-0.074,-0.0921,-0.133,-0.143
CC(=O)NC[C@H]1CN(c2ccc(N3CCOCC3)c(F)c2)C(=O)O1 [Linezolid] + CN(C)C(=O)C(CCN1CCC(O)(c2ccc(Cl)cc2)CC1)(c1ccccc1)c1ccccc1 [Loperamide],-0.0501,0.176,0.116,0.0436
